Where two headings read alike, the source gives them in different places.
Biological target: T1, human TRPV4 (hTRPV4/CHO cells) (Homo sapiens, UniProt Q9HBA0)
T1 construct: expressed in transfected cells; host or cells: CHO-K1
Assay: Test Example 1: TRPV4 inhibitory activity (IC50 value), 4α-PDD stimulation, Fluo4 calcium fluorescence (FLIPR TETRA)
Type: cell-based

[1] = Test Example 1, 4α-PDD stimulation, read-out: Test 1 IC50

T1 sequence (Q9HBA0 whole entry): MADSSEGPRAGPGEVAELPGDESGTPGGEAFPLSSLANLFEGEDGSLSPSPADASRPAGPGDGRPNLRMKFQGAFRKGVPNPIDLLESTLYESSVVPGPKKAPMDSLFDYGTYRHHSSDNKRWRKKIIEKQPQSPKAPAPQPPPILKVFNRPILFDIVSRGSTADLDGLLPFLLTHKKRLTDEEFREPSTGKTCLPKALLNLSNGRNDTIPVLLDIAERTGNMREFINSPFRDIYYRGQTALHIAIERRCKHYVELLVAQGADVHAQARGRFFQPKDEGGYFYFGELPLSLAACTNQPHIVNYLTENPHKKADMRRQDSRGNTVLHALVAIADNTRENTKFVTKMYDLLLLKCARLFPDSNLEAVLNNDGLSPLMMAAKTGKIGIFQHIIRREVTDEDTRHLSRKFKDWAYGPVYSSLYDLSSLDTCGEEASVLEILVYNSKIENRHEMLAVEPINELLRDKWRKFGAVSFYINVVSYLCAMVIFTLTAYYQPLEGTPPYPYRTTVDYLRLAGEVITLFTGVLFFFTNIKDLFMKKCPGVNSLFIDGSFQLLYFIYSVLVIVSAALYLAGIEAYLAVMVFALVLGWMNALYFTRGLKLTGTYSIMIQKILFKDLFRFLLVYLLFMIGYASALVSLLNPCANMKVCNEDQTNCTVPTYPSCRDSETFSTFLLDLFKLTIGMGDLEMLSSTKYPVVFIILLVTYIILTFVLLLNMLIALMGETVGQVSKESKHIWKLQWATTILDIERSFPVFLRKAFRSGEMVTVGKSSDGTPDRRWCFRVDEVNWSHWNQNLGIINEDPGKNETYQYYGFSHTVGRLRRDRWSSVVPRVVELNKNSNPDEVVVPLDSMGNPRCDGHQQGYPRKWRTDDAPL

Row | SMILES | IC50 [1] [nM] | IC50 (1 μmol/L 4α-PDD, Fluo4-AM, read-out: TRPV4 inhibitory activity (IC50 value)) [nM]
1 | Cc1nc(C)c(-c2csc(NC(=O)Cc3ccc(S(=O)(=O)CC(F)(F)F)cc3)n2)s1 [Compound I-141] | < 100 | –
2 | Cc1nc(CO)sc1-c1csc(NC(=O)Cc2ccc(S(=O)(=O)C(F)(F)F)cc2)n1 [Compound I-142] | < 100 | –
3 | Cc1nc(C)c(-c2csc(NC(=O)Cc3ccc(S(=O)(=O)CC(F)F)cc3)n2)s1 [Compound I-143] | 100 to 1000 | –
4 | Cc1nc(C)c(-c2csc(NC(=O)CN3CCN(c4ccccc4)CC3)n2)s1 [Compound I-144] | 100 to 1000 | –
5 | Cc1nc(C)c(-c2csc(NC(=O)Cn3cc(-c4ccccc4Cl)cn3)n2)s1 [Compound I-145] | < 100 | –
6 | Cc1nc(C)c(-c2csc(NC(=O)Cn3cc(-c4cccc(Cl)c4)cn3)n2)s1 [Compound I-146] | < 100 | –
7 | Cc1nc(C)c(-c2csc(NC(=O)Cn3cc(-c4ccc(Cl)cc4)cn3)n2)s1 [Compound I-147] | < 100 | –
8 | Cc1nc(C)c(-c2csc(NC(=O)Cn3cc(-c4cccnc4)cn3)n2)s1 [Compound I-148] | 100 to 1000 | –
9 | Cc1nc(C)c(-c2csc(NC(=O)Cn3cc(-c4cccc(N(C)C)c4)cn3)n2)s1 [Compound I-149] | < 100 | –
10 | Cc1nc(C)c(-c2csc(NC(=O)Cn3cc(-c4cccc(S(C)(=O)=O)c4)cn3)n2)s1 [Compound I-150] | < 100 | –
11 | Cc1nc(C)c(-c2csc(NC(=O)Cn3cc(-c4ccc(S(C)(=O)=O)cc4)cn3)n2)s1 [Compound I-151] | 100 to 1000 | –
12 | Cc1nc(C)c(-c2csc(NC(=O)CN3CCC(c4ccccc4)CC3)n2)s1 [Compound I-152] | 100 to 1000 | –
13 | Cc1nc(C)c(-c2csc(NC(=O)CN3CCC(O)(c4ccccc4)CC3)n2)s1 [Compound I-153] | 1000 to 8000 | –
14 | Cc1nc(C)c(-c2csc(NC(=O)CN3CCCC3c3ccccc3)n2)s1 (stereo not drawn) [Compound I-154] | 100 to 1000 | –
15 | Cc1nc(C)c(-c2csc(NC(=O)CN3CCC(c4ccccc4)C3)n2)s1 (stereo not drawn) [Compound I-155] | 100 to 1000 | –
16 | Cc1nc(C)c(-c2csc(NC(=O)Cc3ccc(S(=O)(=O)N4CCCCC4)cc3)n2)s1 [Compound I-156] | < 100 | 30
17 | Cc1nc(C)c(-c2csc(NC(=O)Cc3ccc(S(=O)(=O)N4CCOCC4)cc3)n2)s1 [Compound I-157] | 100 to 1000 | –
18 | COc1ccc(N(C)S(=O)(=O)c2ccc(CC(=O)Nc3nc(-c4sc(C)nc4C)cs3)cc2)cc1 [Compound I-158] | < 100 | –
19 | Cc1nc(C)c(-c2csc(NC(=O)Cc3ccc(S(=O)(=O)N(C)c4ccccc4)cc3)n2)s1 [Compound I-159] | < 100 | –
20 | Cc1nc(C)c(-c2csc(NC(=O)Cc3ccc(S(=O)(=O)N(C)c4ccc(Cl)cc4)cc3)n2)s1 [Compound I-160] | < 100 | –
21 | Cc1nc(C)c(-c2csc(NC(=O)Cc3ccc(S(=O)(=O)N(C)c4cccc(Cl)c4)cc3)n2)s1 [Compound I-161] | < 100 | –
22 | Cc1nc(C)c(-c2csc(NC(=O)Cc3ccc(S(=O)(=O)N(C)c4ccccc4Cl)cc3)n2)s1 [Compound I-162] | < 100 | –
23 | Cc1nc(C)c(-c2csc(NC(=O)Cc3ccc(S(=O)(=O)N(C)c4ccc(C#N)cc4)cc3)n2)s1 [Compound I-163] | < 100 | –
24 | Cc1nc(C)c(-c2csc(NC(=O)Cc3ccc(S(=O)(=O)Nc4ccccc4)cc3)n2)s1 [Compound I-164] | 100 to 1000 | –
25 | Cc1nc(C)c(-c2csc(NC(=O)Cc3ccc(S(=O)(=O)N(C)c4cccnc4)cc3)n2)s1 [Compound I-165] | 100 to 1000 | –
26 | Cc1nc(C)c(-c2csc(NC(=O)Cn3cc(-c4ccccc4S(C)(=O)=O)cn3)n2)s1 [Compound I-166] | 100 to 1000 | –

Row | SMILES | IC50 [1] [nM] | IC50 (1 μmol/L 4α-PDD, Fluo4-AM, read-out: TRPV4 inhibitory activity (IC50 value)) [nM]
27 | Cc1nc(C)c(-c2csc(NC(=O)Cn3cc(-c4cncnc4)cn3)n2)s1 [Compound I-167] | 1000 to 8000 | –
28 | Cc1nc(C)c(-c2csc(NC(=O)Cn3cc(-c4ccncc4)cn3)n2)s1 [Compound I-168] | 100 to 1000 | –
29 | Cc1nc(C)c(-c2csc(NC(=O)Cn3cc(-c4ccccc4N(C)C)cn3)n2)s1 [Compound I-169] | < 100 | –
30 | Cc1nc(C)c(-c2csc(NC(=O)CN3CCOC(c4ccccc4)C3)n2)s1 (stereo not drawn) [Compound I-170] | 100 to 1000 | –
31 | Cc1nc(CO)sc1-c1csc(NC(=O)CN2CCC(c3ccccc3)CC2)n1 [Compound I-171] | 100 to 1000 | –
32 | Cc1nc(CO)sc1-c1csc(NC(=O)C2CC2(F)F)n1 (stereo not drawn) [Compound I-173] | 100 to 1000 | –
33 | O=C(Cc1ccc(S(=O)(=O)C(F)(F)F)cc1)Nc1nc(-c2sc(CO)nc2CO)cs1 [Compound I-174] | < 100 | –
34 | Cc1nc(C)c(-c2csc(NC(=O)C3Cc4ccccc4N3C)n2)s1 (stereo not drawn) [Compound I-175] | 100 to 1000 | –
35 | Cc1nc(C)c(-c2csc(NC(=O)C3Cc4ccccc4N3C(=O)C(F)(F)F)n2)s1 (stereo not drawn) [Compound I-176] | < 100 | –
36 | Cc1nc(C)c(-c2csc(NC(=O)C3Cc4ccccc4N3)n2)s1 (stereo not drawn) [Compound I-177] | 100 to 1000 | –
37 | Cc1nc(C)c(-c2csc(NC(=O)[C@@H]3C[C@@H](c4ccccc4)CN3)n2)s1 [Compound I-178] | 100 to 1000 | –
38 | Cc1nc(C)c(-c2csc(NC(=O)[C@@H]3C[C@H](c4ccccc4)CN3)n2)s1 [Compound I-179] | 1000 to 8000 | –
39 | Cc1nc(C)c(-c2csc(NC(=O)C3Cc4ccccc4O3)n2)s1 (stereo not drawn) [Compound I-180] | < 100 | –
40 | CCNC(=O)c1nc(C)sc1-c1csc(NC(=O)Cc2c(F)cccc2F)n1 [Compound I-181] | 1000 to 8000 | –
41 | Cc1nc(C(=O)NCCO)c(-c2csc(NC(=O)Cc3c(F)cccc3F)n2)s1 [Compound I-182] | 1000 to 8000 | –
42 | Cc1nc(C)c(-c2csc(NC(=O)CN3CCC[C@@H](c4ccccc4)C3)n2)s1 [Compound I-183] | 100 to 1000 | –
43 | Cc1nc(C)c(-c2csc(NC(=O)CN3CCC[C@H](c4ccccc4)C3)n2)s1 [Compound I-184] | < 100 | –
44 | Cc1nc(CO)sc1-c1csc(NC(=O)C2CCN(c3ccccc3)C2)n1 (stereo not drawn) [Compound I-185] | < 100 | –
45 | Cc1nc(C(=O)NCCN(C)C)c(-c2csc(NC(=O)Cc3c(F)cccc3F)n2)s1 [Compound I-188] | 1000 to 8000 | –
46 | Cc1nc(C)c(-c2csc(NC(=O)Cn3cc(C4(O)CCCCC4)nn3)n2)s1 [Compound I-189] | 1000 to 8000 | –
47 | Cc1nc(C)c(-c2csc(NC(=O)Cn3cc(C4CCCCC4)nn3)n2)s1 [Compound I-190] | < 100 | –
48 | Cc1nc(C)c(-c2csc(NC(=O)Cn3cc(-c4ccccc4)nn3)n2)s1 [Compound I-191] | < 100 | –
49 | Cc1nc(C)c(-c2csc(NC(=O)[C@H]3C[C@H](c4ccccc4)CN3)n2)s1 [Compound I-192] | 1000 to 8000 | –
50 | Cc1nc(C)c(-c2csc(NC(=O)[C@H]3C[C@@H](c4ccccc4)CN3)n2)s1 [Compound I-193] | 1000 to 8000 | –
51 | Cc1nc(C)c(-c2csc(NC(=O)C3CCCN(S(=O)(=O)c4ccccc4)C3)n2)s1 (stereo not drawn) [Compound I-194] | 1000 to 8000 | –
52 | Cc1nc(C)c(-c2csc(NC(=O)C3Cc4ccc(Cl)c(Cl)c4O3)n2)s1 (stereo not drawn) [Compound I-195] | < 100 | –

Row | SMILES | IC50 [1] [nM] | IC50 (1 μmol/L 4α-PDD, Fluo4-AM, read-out: TRPV4 inhibitory activity (IC50 value)) [nM]
53 | Cc1nc(C)c(-c2csc(NC(=O)C3Cc4cc(S(=O)(=O)N(C)C)c(Cl)c(Cl)c4O3)n2)s1 (stereo not drawn) [Compound I-196] | < 100 | –
54 | Cc1nc(C)c(-c2csc(NC(=O)C3CCN(S(=O)(=O)c4ccc(F)cc4)CC3)n2)s1 [Compound I-197] | 100 to 1000 | –
55 | CCNCc1nc(C)sc1-c1csc(NC(=O)Cc2c(F)cccc2F)n1 [Compound I-198] | 100 to 1000 | –
56 | Cc1nc(CO)sc1-c1csc(NC(=O)C2CC(=O)N(c3ccccc3)C2)n1 (stereo not drawn) [Compound I-199] | 100 to 1000 | –
57 | COc1ccc(N2CC(C(=O)Nc3nc(-c4sc(CO)nc4C)cs3)CC2=O)cc1 (stereo not drawn) [Compound I-200] | 1000 to 8000 | –
58 | Cc1nc(C)c(-c2csc(NC(=O)C3Cc4c([N+](=O)[O-])cc(Cl)c(Cl)c4O3)n2)s1 (stereo not drawn) [Compound I-201] | < 100 | –
59 | Cc1nc(CO)sc1-c1csc(NC(=O)[C@H]2C[C@H](F)C2)n1 [Compound I-202] | < 100 | –
60 | Cc1nc(CO)sc1-c1csc(NC(=O)[C@H]2C[C@@H](F)C2)n1 [Compound I-203] | 1000 to 8000 | –
61 | Cc1nc(CO)sc1-c1csc(NC(=O)C2CCN(c3ccc(Cl)cc3)C2)n1 (stereo not drawn) [Compound I-204] | < 100 | –
62 | Cc1nc(C)c(-c2csc(NC(=O)C3CC(C(C)(C)C)=NO3)n2)s1 (stereo not drawn) [Compound I-205] | 100 to 1000 | –
63 | Cc1nc(C)c(-c2csc(NC(=O)C3CC(c4ccccc4)=NO3)n2)s1 (stereo not drawn) [Compound I-206] | 100 to 1000 | –
64 | Cc1nc(CO)sc1-c1csc(NC(=O)C2CC(c3ccccc3)=NO2)n1 (stereo not drawn) [Compound I-207] | 100 to 1000 | –
65 | Cc1nc(CO)sc1-c1csc(NC(=O)C2CN(Cc3ccc(C(F)(F)F)cc3)C2)n1 [Compound I-208] | < 100 | –
66 | Cc1nc(CO)sc1-c1csc(NC(=O)C2CCN(Cc3ccccc3)C2)n1 (stereo not drawn) [Compound I-209] | 1000 to 8000 | –
67 | Cc1nc(C)c(-c2csc(NC(=O)[C@@H]3C[C@@H](c4ccccc4)CN3C(=O)OC(C)(C)C)n2)s1 [Compound I-210] | < 100 | –
68 | Cc1nc(C)c(-c2csc(NC(=O)[C@H]3CC[C@@H](c4ccccc4)N3C(=O)OC(C)(C)C)n2)s1 [Compound I-211] | 100 to 1000 | –
69 | Cc1nc(C)c(-c2csc(NC(=O)[C@@H]3CC[C@H](c4ccccc4)N3C(=O)OC(C)(C)C)n2)s1 [Compound I-212] | < 100 | –
70 | Cc1nc(CO)sc1-c1csc(NC(=O)C2CCN(CC(F)(F)F)C2)n1 (stereo not drawn) [Compound I-213] | 100 to 1000 | –
71 | Cc1nc(CO)sc1-c1csc(NC(=O)C2CCN(S(=O)(=O)C(F)(F)F)C2)n1 (stereo not drawn) [Compound I-214] | 100 to 1000 | –
72 | Cc1nc(C)c(-c2csc(NC(=O)[C@H]3CC[C@@H](c4ccccc4)N3)n2)s1 [Compound I-215] | 100 to 1000 | –
73 | Cc1nc(C)c(-c2csc(NC(=O)[C@@H]3CC[C@H](c4ccccc4)N3)n2)s1 [Compound I-216] | 100 to 1000 | –
74 | Cc1nc(C)c(-c2csc(NC(=O)[C@@H]3C[C@@H](c4ccccc4)CN3C)n2)s1 [Compound I-217] | 1000 to 8000 | –
75 | Cc1nc(C)c(-c2csc(NC(=O)[C@@H]3C[C@@H](c4ccccc4)CN3C(=O)C(F)(F)F)n2)s1 [Compound I-218] | < 100 | –
76 | CCN(CC)Cc1nc(CO)sc1-c1csc(NC(=O)Cc2ccc(S(=O)(=O)C(F)(F)F)cc2)n1 [Compound I-236] | 100 to 1000 | –
77 | CCNCc1nc(CO)sc1-c1csc(NC(=O)Cc2ccc(S(=O)(=O)C(F)(F)F)cc2)n1 [Compound I-237] | 100 to 1000 | –

Source: patent US20170066759A1, “AROMATIC 5-MEMBERED HETEROCYCLIC DERIVATIVE HAVING TRPV4-INHIBITING ACTIVITY” (Shionogi & Co., Ltd., priority 2012, published 2017)
